Non-standard residues stand in square brackets, D forms with d. Residues, ends and D or L forms follow the SMILES beside them. *: point of attachment. Dolaproine = CO[C@@H]([C@@H]1CCCN1)[C@@H](C)C(=O)O; Dil = CC[C@H](C)[C@H](NC)[C@@H](CC(=O)O)OC; NMe2Val = CC(C)[C@@H](C(=O)*)N(C)C; NH(3-hydroxypropyl) = OCCCN*

For test [1], the system named is TumorGraft™ model of non-small cell lung carcinoma (CTG-0860). Nature of the test: Antitumor activity in low passage TumorGraft model of non-small cell lung carcinoma in humanized mice (CTG-0860). It counts as in vivo. The settings on record: per Table 1: XMT-1519 conjugate 1.0 mg/kg IV q7dx3; pembrolizumab 2.5 mg/kg IP q5dx6; n=5 per group; FIG. 1.
Protocol: Unmatched human leukocyte antigen (HLA) humanized CD34+ engrafted immune compromised female mice (Taconic NOG) were subcutaneously implanted unilaterally on the left flank with tumor fragments (n=5 for each group and two additional mice for tumor infiltration lymphocytes measurement for the test compounds only). […] Tumor size was measured at the times indicated in FIG. 1 using digital calipers. Tumor volume was calculated and was used to determine the tumor growth inhibition. Control mice were sacrificed when tumors reached a size of 1500 mm^3. Tumor volumes are reported as the mean±SEM for each group.
When tumors reached a size of 1500 mm^3 in control mice, they were sacrificed as well as two mice from each treatment groups, and tumor infiltration lymphocytes were analyzed. At the study endpoint (day 49) all the surviving mice were sacrificed and tumor infiltration lymphocytes were analyzed. Tumors were dissociated and analyzed for tumor infiltrating lymphocytes by flow cytometry for the following markers: human CD45 infiltrating lymphocytes, hCD3 (T cells), hCD4 (helper T cells), hCD8 (cytotoxic T cells), hCD19 (B cells), T cells activation and proliferation—hCD25.
For the next test, the system named is JIMT-1. Nature of the test: ATP release from cells (ENLITEN ATP Assay), JIMT-1. Type of test: cell-based, human. The settings on record: AF-HPA or XMT-1519 conjugate at 0.5 μM, 24 h, mitoxantrone positive control, compared to untreated (control) cells, FIG. 2. How it is done:
(§1) Cancer cells undergoing apoptosis in response to specific anticancer therapies are immunogenic (also known as immunogenic cell death (ICD)), as long as they emit precise DAMPs in a spatiotemporally defined fashion. […] Mitoxantrone, a known strong inducer of ICD and ATP release, was used as a positive control. Briefly, two HER2 expressing cell lines, JIMT-1 (cat. # ACC589, DSMZ Cell Collection) and SKBR3 (cat # ATCC® HTB 30™, American Tissue Culture Collection) were seeded at a density of 7500 cells per well in 24 wells plate, allowed to grow for 24 h, and then treated with AF-HPA or XMT-1519 conjugate at 0.5 μM in 100 μl in […] (Cat#11875-119, Thermo Fisher Scientific) for 24 h. The cells were then pelleted by centrifugation and ATP release was measured using ENLITEN® ATP Assay System (Promega) according to manufacturer's instructions.

Test [2] has as its system SKBR3. Nature of the test: ATP release from cells (ENLITEN ATP Assay), SKBR3. Type of test: cell-based. To be noted: AF-HPA or XMT-1519 conjugate at 0.5 μM, 24 h, mitoxantrone positive control, compared to untreated (control) cells, FIG. 2. As for the experimental part: as §1
The subject of the next test is NCI-N87 cells. Briefly: Calreticulin exposure on cell membrane (flow cytometry), NCI-N87. It counts as cell-based, human. The settings on record: 2.5 h at 37° C. How it is done: (§2) High HER2-expressing cell lines, NCI-N87 (800,000 HER2 receptors), SKBR3 (700,000 HER2 receptors) and low HER2 expressing cell line HT-29 (16,000 HER2 receptors) were re-suspended at a density of 2×10^6 cells/mL in 100 μl PBS containing 2% FBS. Cells in 96 well plate (Corning® 96 Well Clear Round Bottom Polypropylene Not Treated Microplate cat#3879) were treated with XMT-1519 conjugate or AF-HPA at 1 μM or with mitoxantrone, a strong calreticulin exposure inducer, at 0.01 to 1 μM for 2.5 h at 37° C. Cells were then incubated with anti-calreticulin antibody (clone 16B11.1 Cat: MABT217, Millipore Sigma, 1:200) in ice cold PBS containing 2% FBS for 1 h on ice, washed twice with cold PBS containing 2% and then incubated for 20 min on ice with a secondary antibody (Alexa 647-anti Mouse IgG (H+L) 1:800, Thermo Fisher Scientific Cat#:A32728) in ice cold PBS containing 2% FBS. Thereafter the cells were stained with Annexin V (Pacific Blue™ cat# A35122, Thermo Fisher Scientific) according to manufacturer's instructions to identify apoptotic cell population. Necrotic cell population was labeled by propidium iodide (cat# P3566 Thermo Fisher Scientific) at 1:1000 dilution. Cells were then analyzed by flow cytometry using MACSQuant® Analyzer 10. Apoptotic and necrotic cell populations were excluded and only live cells for measured for calreticulin exposure.
On the technique in general: A flow cytometer gives signals particle by particle.

Test [3] has as its system SKBR3. Nature of the test: Calreticulin exposure on cell membrane (flow cytometry), SKBR3. The settings on record: SKBR3 (700,000 HER2 receptors); 1 μM, 2.5 h at 37° C; FIG. 3. Type of test: cell-based. As for the experimental part:
as §2

The test system of a further test is HT-29. Briefly: Calreticulin exposure on cell membrane (flow cytometry), HT-29. It counts as cell-based. To be noted: HT-29 (16,000 HER2 receptors, low HER2); 1 μM, 2.5 h at 37° C; FIG. 3. How it is done: as §2
Test [4] relates to 4T1-7bb7 cells (human HER2-expressing mouse 4T1 breast cancer). Briefly: Tumor response in 4T1-7bb7 syngeneic mouse model (Example 5). Type of test: in vivo, Balb/c mice. To be noted: per Table 2: XMT-1519 conjugate 4.0 mg/kg IV qwx2; Kadcyla 15.0 mg/kg IV qwx2; anti-PD1 mAb 10.0 mg/kg IP days 0, 2, 4, 7, 10; n=13; FIG. 5. How it is done:
Tumor growth inhibition (% TGI) was defined as the percent difference in median tumor volumes (MTVs) between treated and control groups.
Treatment efficacy was determined from the incidence and magnitude of regression responses of the tumor size observed during the study. Treatment may cause partial regression (PR) or complete regression (CR) of the tumor in an animal. In a PR response, the tumor volume was 50% or less of its Day 1 volume for three consecutive measurements during the course of the study, and equal to or greater than 13.5 mm^3 for one or more of these three measurements. In a CR response, the tumor volume was less than 13.5 mm^3 for three consecutive measurements during the course of the study. An animal with a CR response at the termination of a study was additionally classified as a tumor-free survivor (TFS). Animals were monitored for regression responses.
Six to eight week old female, Balb/c mice (Jackson Labs, Bar Harbor, Me.) were subcutaneously implanted unilaterally on the left flank with 4×10^4/mouse 4T1-7bb7 cells (n=13 mice/group). […] Tumor sizes were measured twice a week using digital calipers, and average tumor volume was calculated to determine tumor growth inhibition. […]

A further test deals with human HER2 (Homo sapiens, UniProt P04626). Nature of the test: Inhibition of HER2 functional activity in vitro. As for the experimental part: The HER2 antibodies disclosed herein serve to modulate, block, inhibit, reduce, antagonize, neutralize or otherwise interfere with the functional activity of HER2. HER2. Functional activities of HER2 include for example, modulation of PI3K-Akt pathway activity. […] PI3K-Akt pathway activity is assessed using any art-recognized method for detecting PI3K-Akt pathway activity, including, but not limited to detecting levels of phosphorylated Akt in the presence and absence of an antibody or antigen binding fragment disclosed herein.
The HER2 antibodies are considered to completely modulate, block, inhibit, reduce, antagonize, neutralize or otherwise interfere with HER2 functional activity when the level of HER2 functional activity in the presence of the HER2 antibody is decreased by at least 95%, e.g., by 96%, 97%, 98%, 99% or 100% as compared to the level of HER2 functional activity in the absence of binding with a HER2 antibody described herein. The HER2 antibodies are considered to partially modulate, block, inhibit, reduce, antagonize, neutralize or otherwise interfere with HER2 functional activity when the level of HER2 activity in the presence of the HER2 antibody is decreased by less than 95%, e.g., 10%, 20%, 25%, 30%, 40%, 50%, 60%, 75%, 80%, 85% or 90% as compared to the level of HER2 activity in the absence of binding with a HER2 antibody described herein.

Where [5] appears, read: NCI-N87 (800,000 HER2 receptors), 1 μM, live cells only, FIG. 3.

Take “XMT 1519-(EG2-MI-(7.7 kDa PHF-BA-(AF-HPA-Ala))) [XMT-1519 conjugate]”: in test [1], the “tumor response (tumor volume / tumor growth inhibition)” value is “decrease in tumor volume”. In addition, the ATP release result with JIMT-1 and in the test with SKBR3 [2] was “ATP was released” each time. Also, the “calreticulin exposure on cell membrane” value in the test on NCI-N87 cells (setting [5]), in the test on SKBR3 [3] and with HT-29 was “induced calreticulin exposure” in each case. In test [4], the “tumor response (tumor growth inhibition / anti-tumor efficacy)” value is reported as “significant inhibition of tumor growth”.

As for “XMT 1519: fully human HER2 monoclonal antibody, heavy chain SEQ ID NO: 5, light chain SEQ ID NO: 6”, the “functional activity of HER2” value with human HER2 is on record as “inhibit the functional activity of HER2 in vitro”.

With `CC[C@H](C)[C@@H]([C@@H](CC(=O)N1CCC[C@H]1[C@H](OC)[C@@H](C)C(=O)N[C@@H](Cc1ccccc1)C(=O)NCCCO)OC)N(C)C(=O)[C@@H](NC(=O)[C@H](C(C)C)N(C)C)C(C)C` [AF-HPA, Auristatin F-hydroxypropyl amide] (NMe2Val-V[Dil][Dolaproine]F-{NH(3-hydroxypropyl)}), the ATP release result in the test with JIMT-1 and in the test on SKBR3 [2] was “ATP was released” in each case. Moreover, the “calreticulin exposure on cell membrane” value in the test with NCI-N87 cells (setting [5]) was “induced calreticulin exposure”.

In the case of `O=C1c2c(O)ccc(O)c2C(=O)c2c(NCCNCCO)ccc(NCCNCCO)c21` [mitoxantrone, reference compound], the ATP release entry in the test on JIMT-1 and in the test on SKBR3 [2] was “ATP was released” in each case. In the test with NCI-N87 cells (NCI-N87, mitoxantrone at 0.01 to 1 μM, FIG. 3 panel (a)), the “calreticulin exposure on cell membrane” value is reported as “dose dependent calreticulin exposure”.

Values taken from patent publication US20180271996A1, “COMBINATION THERAPIES OF HER2-TARGETED ANTIBODY-DRUG CONJUGATES” (Mersana Therapeutics, Inc., priority 2017, published 2018).
